# Assay results as given in US20230053540A1, “TREATMENT OF LIVER INJURY” (Massachusetts Institute of Technology, priority 2019, published 2023).
# Test system: hepatocytes
# Test: Seq-Well scRNA-Seq of hepatocytes after APAP overdose (signature scores, DEG vs untreated)
# Assay type: in vivo, mouse
# [1] = hepatocytes, cluster A48 (APAP) vs other treatment clusters
# [2] = time point A6 vs untreated (UT)
smiles,measurement,setting,value
"CC(=O)Nc1ccc(O)cc1 [APAP, acetaminophen]",Rdh7 avg_logFC,[1],0.4684
same,Reep6 avg_logFC,[1],0.6233
same,Retsat avg_logFC,[1],0.7096
same,Rgs16 avg_logFC,[1],0.4545
same,Rpl38 avg_logFC,[1],0.3322
same,Scand1 avg_logFC,[1],0.2707
same,Serpina3m avg_logFC,[1],0.4034
same,Serpina1d avg_logFC,[1],0.3053
same,Serping1 avg_logFC,[1],0.5777
same,Slc25a10 avg_logFC,[1],0.4313
same,Slc25a20 avg_logFC,[1],0.3875
same,Slc25a47 avg_logFC,[1],0.6175
same,Slc27a5 avg_logFC,[1],0.4062
same,Slc37a4 avg_logFC,[1],0.4461
same,Slco1a4 avg_logFC,[1],0.5091
same,Snord118 avg_logFC,[1],0.4771
same,St3gal5 avg_logFC,[1],0.5549
same,Sult1a1 avg_logFC,[1],0.4827
same,Syvn1 avg_logFC,[1],0.3041
same,Tcea3 avg_logFC,[1],0.3938
same,Tef avg_logFC,[1],0.3394
same,Tmbim4 avg_logFC,[1],0.3693
same,Tmbim6 avg_logFC,[1],0.3713
same,Ttc36 avg_logFC,[1],0.5638
same,Ttpa avg_logFC,[1],0.4431
same,Ttr avg_logFC,[1],0.4225
same,Ugt2b5 avg_logFC,[1],0.4388
same,Vnn3 avg_logFC,[1],0.3008
same,Vtn avg_logFC,[1],0.5228
same,Yipf3 avg_logFC,[1],0.2785
same,avg_logFC 15-Sep,[2],−0.4092
same,avg_logFC 0610007P14Rik,[2],−0.257
same,avg_logFC 0610011F06Rik,[2],−0.3037
same,avg_logFC 1110008F13Rik,[2],−0.3751
same,avg_logFC 1110058L19Rik,[2],−0.2581
same,avg_logFC 1810022K09Rik,[2],−0.3001
same,avg_logFC 2010107E04Rik,[2],−0.3182
same,avg_logFC 3110043021Rik,[2],0.2694
same,avg_logFC AA474408,[2],0.3471
same,avg_logFC AW112010,[2],−0.2981
same,avg_logFC Aadat,[2],−0.3186
same,avg_logFC Abcc2,[2],0.2897
same,avg_logFC Abcd3,[2],−0.2718
same,avg_logFC Abhd14b,[2],−0.3937
same,avg_logFC Acads,[2],−0.3242
same,avg_logFC Acbd5,[2],−0.3952
same,avg_logFC Acot13,[2],−0.2886
same,avg_logFC Actn4,[2],0.3124
same,avg_logFC Adtrp,[2],−0.3664
same,avg_logFC Agpat2,[2],−0.2982
same,avg_logFC Ak2,[2],−0.3451
same,avg_logFC Akap11,[2],0.3464
same,avg_logFC Akr1a1,[2],−0.3269
same,avg_logFC Akr1e1,[2],−0.2582
same,avg_logFC Amy1,[2],−0.283
same,avg_logFC Anapc13,[2],−0.3642
same,avg_logFC Ankrd11,[2],0.4156
same,avg_logFC Anp32a,[2],−0.317
same,avg_logFC Anxa5,[2],0.3654
same,avg_logFC Aox3,[2],−0.3333
same,avg_logFC Apc,[2],0.279
same,avg_logFC Apcs,[2],0.2989
same,avg_logFC Apom,[2],−0.3024
same,avg_logFC Aqp9,[2],−0.3109
same,avg_logFC Arl6ip1,[2],−0.3649
same,avg_logFC Atf4,[2],0.3411
same,avg_logFC Atf6,[2],0.3778
same,avg_logFC Atp1b1,[2],0.3702
same,avg_logFC Atp2b1,[2],0.3321
same,avg_logFC Atp5c1,[2],−0.3476
same,avg_logFC Atp5g3,[2],−0.3002
same,avg_logFC Atp5o,[2],−0.3316
same,avg_logFC BC005537,[2],0.3543
same,avg_logFC Baat,[2],−0.3086
same,avg_logFC Baz1a,[2],0.2596
same,avg_logFC Bckdha,[2],−0.35
same,avg_logFC Bet1,[2],−0.2966
same,avg_logFC Bhmt2,[2],−0.3114
same,avg_logFC Bnip3,[2],−0.3362
same,avg_logFC Bola3,[2],−0.3689
same,avg_logFC Bptf,[2],0.3245
same,avg_logFC Bsg,[2],−0.3152
same,avg_logFC Bst2,[2],−0.3156
same,avg_logFC C8b,[2],−0.3159
same,avg_logFC C130074G19Rik,[2],−0.3563
same,avg_logFC Car5a,[2],−0.3088
same,avg_logFC Cars,[2],0.3158
same,avg_logFC Cast,[2],0.4009
same,avg_logFC Cebpb,[2],−0.3617
same,avg_logFC Cela1,[2],−0.2723
same,avg_logFC Cep85l,[2],0.2779
same,avg_logFC Ces1f,[2],−0.3126
same,avg_logFC Cfhr1,[2],−0.3253
same,avg_logFC Chmp4b,[2],0.3002
same,avg_logFC Chuk,[2],0.3724
same,avg_logFC Cideb,[2],−0.3684
same,avg_logFC Cisd1,[2],−0.3727
same,avg_logFC Cldn2,[2],−0.2511
same,avg_logFC Cldn3,[2],−0.3145
same,avg_logFC Cnpy2,[2],−0.3729
same,avg_logFC Coq9,[2],−0.3479
same,avg_logFC Coro1c,[2],0.3067
same,avg_logFC Cox6b1,[2],−0.362
same,avg_logFC Cox8a,[2],−0.3993
same,avg_logFC Cpb2,[2],−0.3215
same,avg_logFC Cpt1a,[2],0.2611
same,avg_logFC Csde1,[2],0.3156
same,avg_logFC Csrp3,[2],−0.294
same,avg_logFC Ctsc,[2],0.361
same,avg_logFC Cxcl1,[2],0.3701
same,avg_logFC Cybb,[2],0.3778
same,avg_logFC Cyp4f14,[2],−0.2959
same,avg_logFC Cyp4f15,[2],−0.2998
same,avg_logFC Cyp27a1,[2],−0.3735
same,avg_logFC D10Jhu81e,[2],−0.3957
same,avg_logFC D17Wsu92e,[2],0.2525
same,avg_logFC Ddah1,[2],−0.312
same,avg_logFC Ddx3y,[2],0.3395
same,avg_logFC Derl2,[2],−0.3317
same,avg_logFC Dgat2,[2],−0.3433
same,avg_logFC Dhdh,[2],−0.3348
same,avg_logFC Dhrs4,[2],−0.3321
same,avg_logFC Dhx9,[2],0.3504
same,avg_logFC Dnaja2,[2],0.3723
same,avg_logFC Dnajc5,[2],0.3265
same,avg_logFC Dnajc19,[2],−0.316
same,avg_logFC Dync1h1,[2],0.3796
same,avg_logFC Dync1li1,[2],0.2624
same,avg_logFC Ebp,[2],−0.3553
same,avg_logFC Echs1,[2],−0.3316
same,avg_logFC Edf1,[2],−0.3817
same,avg_logFC Eef1a1,[2],0.2826
same,avg_logFC Eif3c,[2],0.302
same,avg_logFC Eif4b,[2],0.3682
same,avg_logFC Eprs,[2],0.3701
same,avg_logFC Erbb2ip,[2],0.3332
same,avg_logFC Esd,[2],−0.2808
same,avg_logFC Ethe1,[2],−0.3334
same,avg_logFC Etnk1,[2],0.316
same,avg_logFC F10,[2],−0.2719
same,avg_logFC Fah,[2],−0.2593
same,avg_logFC Fam25c,[2],−0.2977
same,avg_logFC Fam214a,[2],−0.2658
same,avg_logFC Fbxo21,[2],−0.2631
same,avg_logFC Fcna,[2],0.3774
same,avg_logFC Fdps,[2],−0.2663
same,avg_logFC Fkbp4,[2],−0.3534
same,avg_logFC Fus,[2],0.3393
same,avg_logFC Gadd45g,[2],−0.3554
same,avg_logFC Gadd45gip1,[2],−0.3041
same,avg_logFC Gcdh,[2],−0.3003
same,avg_logFC Ghr,[2],−0.3648
same,avg_logFC Gjb1,[2],−0.3166
same,avg_logFC Glyctk,[2],−0.2977
same,avg_logFC Gm2788,[2],−0.2831
same,avg_logFC Gm4951,[2],−0.3221
same,avg_logFC Gm10800,[2],0.5626
same,avg_logFC Gm24245,[2],0.5465
same,avg_logFC Grhpr,[2],−0.3531
same,avg_logFC Gsr,[2],0.4128
same,avg_logFC Gstm4,[2],−0.3809
same,avg_logFC Gyk,[2],0.3684
same,avg_logFC Hibch,[2],−0.3271
same,avg_logFC Hipk3,[2],0.3394
same,avg_logFC Hist1h1c,[2],−0.3009
same,avg_logFC Hmgcs1,[2],−0.3491
same,avg_logFC Hsd17b10,[2],−0.3772
same,avg_logFC Hsp90b1,[2],−0.2615
same,avg_logFC Hspa5,[2],0.2682
same,avg_logFC Huwe1,[2],0.3879
same,avg_logFC Ifrd1,[2],0.4904
same,avg_logFC Il6ra,[2],0.3044
same,avg_logFC Ipo5,[2],0.2687
same,avg_logFC Ipo7,[2],0.3246
same,avg_logFC Ivns1abp,[2],0.3566
same,avg_logFC Jhdm1d,[2],0.3041
same,avg_logFC Kif21a,[2],0.4042
same,avg_logFC Lap3,[2],−0.3644
same,avg_logFC Larp4b,[2],0.3421
same,avg_logFC Lcp1,[2],0.484
same,avg_logFC Lrrfip2,[2],0.3731
same,avg_logFC Lsmd1,[2],−0.3131
same,avg_logFC Macf1,[2],0.4042
same,avg_logFC Mak16,[2],0.3171
same,avg_logFC Map3k5,[2],0.3347
same,avg_logFC Mbl2,[2],−0.3465
same,avg_logFC Mcee,[2],−0.3199
same,avg_logFC Mdh1,[2],−0.3077
same,avg_logFC Mdm2,[2],0.3283
same,avg_logFC Metap2,[2],0.3686
same,avg_logFC Mettl7a1,[2],−0.3221
same,avg_logFC Mien1,[2],−0.3704
same,avg_logFC Mki67ip,[2],0.3184
same,avg_logFC Mocs2,[2],−0.3467
same,avg_logFC Mpc1,[2],−0.2802
same,avg_logFC Mrc1,[2],0.3404
same,avg_logFC Mrp133,[2],−0.2654
same,avg_logFC Mrpl11,[2],−0.2685
same,avg_logFC Mrpl12,[2],−0.3082
same,avg_logFC Mrpl15,[2],−0.2912
same,avg_logFC Mrpl34,[2],−0.2838
same,avg_logFC Mrpl41,[2],−0.2674
